Reference: ChEMBL document CHEMBL1135260 (Bioorg Med Chem Lett, 2002)

Target: T1, Neuropeptide Y receptor type 5 (Homo sapiens, UniProt Q15761)
T1 sequence (Q15761 whole entry): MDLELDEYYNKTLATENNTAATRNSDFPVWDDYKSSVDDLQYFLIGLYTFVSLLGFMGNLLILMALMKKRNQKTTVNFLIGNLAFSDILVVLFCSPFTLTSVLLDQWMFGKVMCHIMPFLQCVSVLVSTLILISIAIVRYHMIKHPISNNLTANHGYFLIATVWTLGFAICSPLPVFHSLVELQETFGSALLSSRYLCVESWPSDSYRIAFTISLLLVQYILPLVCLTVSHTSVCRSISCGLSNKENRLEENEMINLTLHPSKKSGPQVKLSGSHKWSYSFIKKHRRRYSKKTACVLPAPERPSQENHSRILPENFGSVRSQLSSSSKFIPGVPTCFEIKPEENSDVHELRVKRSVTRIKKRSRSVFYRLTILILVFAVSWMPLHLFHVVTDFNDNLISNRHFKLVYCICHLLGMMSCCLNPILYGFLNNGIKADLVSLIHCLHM
Assay: Concentration that inhibited 50% of binding of 125 I -PYY ligand to human Neuropeptide Y receptor type 5
Format: single protein

Row | Structure (SMILES) | IC50 [nM]
1 | COc1ccc2c(c1)-c1nc(-c3ccccn3)[nH]c1CCC2 | 110
2 | c1ccc2c(c1)CCCc1[nH]c(-c3c[nH]cn3)nc1-2 | 570
3 | c1ccc(-c2nc3c([nH]2)-c2ccccc2CCC3)nc1 | 110
4 | c1ccc(-c2nc3c([nH]2)CCOc2ccccc2-3)cc1 | 6100
5 | Cc1[nH]c(-c2ccccc2)nc1-c1cccnc1 [FR-79620] | 427

Stronger by IC50, values ahead:

Row | IC50 [nM] | Structure (SMILES)
6 | 52 | COc1ccc2c(c1)-c1nc(-c3ccccc3)[nH]c1CC2
7 | 6.4 | Fc1ccc2c(c1)-c1nc(-c3cccnc3)[nH]c1CCC2
